Data as given in the CheMixHub viscosity set.

Assay: xn = mol fraction of the nth substance listed

CCCCCCCCO + CC#N
viscosity [mPa·s], 101 kPa
Settings	298.15 K	303.15 K	308.15 K
x2 = 0.1277	5.028	4.029	3.493
x2 = 0.2608	3.533	3.09	2.688
x2 = 0.3381	2.848	2.53	2.203
x2 = 0.4447	2.086	1.862	1.638
x2 = 0.5793	1.427	1.282	1.151
x2 = 0.68	1.028	0.927	0.84
x2 = 0.7638	0.77	0.701	0.647
x2 = 0.8283	0.695	0.562	0.523
x2 = 0.8825	0.502	0.472	0.446
x2 = 0.9273	0.435	0.414	0.391
x2 = 0.967	0.39	0.364	0.346

CCCCCCCCO + CCCCCCCCCCCC
298.15 K, 101 kPa
Settings	viscosity [mPa·s]
x2 = 0.0554	6.58
x2 = 0.0999	6
x2 = 0.1554	5.3
x2 = 0.1998	4.78
x2 = 0.2555	4.16
x2 = 0.2998	3.71
x2 = 0.3554	3.19
x2 = 0.3998	2.81
x2 = 0.4554	2.39
x2 = 0.4999	2.1
x2 = 0.5555	1.78
x2 = 0.5998	1.57
x2 = 0.6555	1.35
x2 = 0.6998	1.22
x2 = 0.7554	1.1
x2 = 0.7998	1.04
x2 = 0.8555	1
x2 = 0.8999	1
x2 = 0.9555	1.04

BrC(Br)Br + CC(C)=O
298.15 K, 101 kPa
Settings	viscosity [mPa·s]
x1 = 0.0969	0.407
x1 = 0.2014	0.529
x1 = 0.332	0.696
x1 = 0.428	0.847
x1 = 0.4952	0.954
x1 = 0.5974	1.131
x1 = 0.6766	1.268
x1 = 0.7997	1.503
x1 = 0.9166	1.73

C=Cc1ccccc1 + C1CCOC1
viscosity [mPa·s], 101.33 kPa
Settings	x1 = 0.1011	x1 = 0.199	x1 = 0.3001	x1 = 0.401	x1 = 0.4963	x1 = 0.6002	x1 = 0.6993	x1 = 0.8017	x1 = 0.8979
298.15 K	0.514	–	0.595	0.632	0.664	0.695	0.721	0.742	0.747
303.15 K	0.49	0.528	0.562	0.599	0.625	0.658	0.677	0.695	0.699
308.15 K	0.463	0.498	0.532	0.564	0.589	0.616	0.637	0.652	0.651

C=Cc1ccccc1 + CCCCCCCCC
viscosity [mPa·s], 101.33 kPa
Settings	x1 = 0.0999	x1 = 0.2002	x1 = 0.2986	x1 = 0.3964	x1 = 0.4953	x1 = 0.5967	x1 = 0.6984	x1 = 0.7933	x1 = 0.8971
298.15 K	0.638	0.626	0.618	0.613	0.614	0.616	0.628	0.642	0.669
303.15 K	0.606	0.588	0.582	0.577	0.579	0.581	0.593	0.606	0.628
308.15 K	0.564	0.551	0.547	0.544	0.544	0.547	0.558	0.57	0.591
